Experimental data taken from ChEMBL document CHEMBL5634123, “Design and synthesis of 1H-benzo[d]imidazole selective HDAC6 inhibitors with potential therapy for multiple myeloma” (Eur J Med Chem, 2023).
Activity calls are given as the source filed them. No cut-off for these calls is given here.

Experiments:
Histone deacetylase 1 = Histone deacetylase 1 (Homo sapiens, UniProt Q13547); assay: Inhibition of HDAC1 (unknown origin) preincubated for 10 mins followed by substrate addition measured for 1 hr by fluorescence based assay
Histone deacetylase 1, sequence (Q13547 whole entry): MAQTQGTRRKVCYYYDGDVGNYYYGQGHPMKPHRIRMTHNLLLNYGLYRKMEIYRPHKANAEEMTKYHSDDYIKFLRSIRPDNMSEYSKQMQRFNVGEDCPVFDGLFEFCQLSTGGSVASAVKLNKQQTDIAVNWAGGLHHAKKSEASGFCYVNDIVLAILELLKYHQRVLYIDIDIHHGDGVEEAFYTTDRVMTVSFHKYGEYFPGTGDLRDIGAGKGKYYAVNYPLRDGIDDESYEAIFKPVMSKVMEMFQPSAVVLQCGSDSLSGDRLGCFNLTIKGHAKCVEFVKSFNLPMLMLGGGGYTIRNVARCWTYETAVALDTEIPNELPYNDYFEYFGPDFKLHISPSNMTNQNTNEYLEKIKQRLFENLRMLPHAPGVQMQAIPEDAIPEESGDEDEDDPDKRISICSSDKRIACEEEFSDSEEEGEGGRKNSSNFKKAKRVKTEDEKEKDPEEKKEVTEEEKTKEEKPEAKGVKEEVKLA

HCT-116 = assay: Cytotoxicity against human HCT-116 cells assessed as inhibition of cell viability incubated for 24 hrs by CCK8 assay; type: functional, cell-based; settings: HCT-116, 24 h
HCCLM3 = assay: Cytotoxicity against human HCCLM3 cells assessed as inhibition of cell viability incubated for 24 hrs by CCK8 assay; type: functional, cell-based; settings: HCCLM3, 24 h
Histone deacetylase 4 = Histone deacetylase 4 (Homo sapiens, UniProt P56524); assay: Inhibition of HDAC4 (unknown origin) preincubated for 10 mins followed by substrate addition by fluorescence based assay
Histone deacetylase 4, sequence (P56524 whole entry): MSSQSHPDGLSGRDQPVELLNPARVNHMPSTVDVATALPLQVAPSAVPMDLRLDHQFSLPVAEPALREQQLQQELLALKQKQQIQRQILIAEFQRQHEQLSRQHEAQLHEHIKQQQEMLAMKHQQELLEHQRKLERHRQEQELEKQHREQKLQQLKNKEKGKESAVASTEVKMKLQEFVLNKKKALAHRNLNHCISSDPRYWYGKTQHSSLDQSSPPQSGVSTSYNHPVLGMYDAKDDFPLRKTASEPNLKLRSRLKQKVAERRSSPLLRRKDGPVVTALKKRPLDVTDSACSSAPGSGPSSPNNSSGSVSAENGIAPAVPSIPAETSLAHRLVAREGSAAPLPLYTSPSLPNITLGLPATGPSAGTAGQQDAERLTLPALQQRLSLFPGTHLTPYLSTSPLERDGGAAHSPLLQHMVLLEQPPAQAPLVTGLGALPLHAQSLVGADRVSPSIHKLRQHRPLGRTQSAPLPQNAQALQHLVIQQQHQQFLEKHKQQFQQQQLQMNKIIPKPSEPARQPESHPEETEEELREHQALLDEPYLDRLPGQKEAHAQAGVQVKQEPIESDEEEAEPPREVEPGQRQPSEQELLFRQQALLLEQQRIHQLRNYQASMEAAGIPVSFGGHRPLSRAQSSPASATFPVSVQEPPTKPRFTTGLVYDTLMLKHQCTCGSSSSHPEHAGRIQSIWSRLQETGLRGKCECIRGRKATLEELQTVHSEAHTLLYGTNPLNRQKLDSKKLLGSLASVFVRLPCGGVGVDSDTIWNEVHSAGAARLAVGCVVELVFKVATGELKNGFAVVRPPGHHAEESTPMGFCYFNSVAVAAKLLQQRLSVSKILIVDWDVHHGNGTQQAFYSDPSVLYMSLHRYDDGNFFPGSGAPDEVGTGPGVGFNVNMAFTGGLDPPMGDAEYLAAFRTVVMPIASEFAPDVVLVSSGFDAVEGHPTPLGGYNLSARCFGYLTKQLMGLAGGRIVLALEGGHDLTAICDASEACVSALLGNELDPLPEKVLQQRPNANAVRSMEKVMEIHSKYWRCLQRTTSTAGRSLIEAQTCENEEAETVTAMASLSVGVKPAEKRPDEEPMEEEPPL

Histone deacetylase 5 = Histone deacetylase 5 (Homo sapiens, UniProt Q9UQL6); assay: Inhibition of HDAC5 (unknown origin) preincubated for 10 mins followed by substrate addition by fluorescence based assay
Histone deacetylase 5, sequence (Q9UQL6 whole entry): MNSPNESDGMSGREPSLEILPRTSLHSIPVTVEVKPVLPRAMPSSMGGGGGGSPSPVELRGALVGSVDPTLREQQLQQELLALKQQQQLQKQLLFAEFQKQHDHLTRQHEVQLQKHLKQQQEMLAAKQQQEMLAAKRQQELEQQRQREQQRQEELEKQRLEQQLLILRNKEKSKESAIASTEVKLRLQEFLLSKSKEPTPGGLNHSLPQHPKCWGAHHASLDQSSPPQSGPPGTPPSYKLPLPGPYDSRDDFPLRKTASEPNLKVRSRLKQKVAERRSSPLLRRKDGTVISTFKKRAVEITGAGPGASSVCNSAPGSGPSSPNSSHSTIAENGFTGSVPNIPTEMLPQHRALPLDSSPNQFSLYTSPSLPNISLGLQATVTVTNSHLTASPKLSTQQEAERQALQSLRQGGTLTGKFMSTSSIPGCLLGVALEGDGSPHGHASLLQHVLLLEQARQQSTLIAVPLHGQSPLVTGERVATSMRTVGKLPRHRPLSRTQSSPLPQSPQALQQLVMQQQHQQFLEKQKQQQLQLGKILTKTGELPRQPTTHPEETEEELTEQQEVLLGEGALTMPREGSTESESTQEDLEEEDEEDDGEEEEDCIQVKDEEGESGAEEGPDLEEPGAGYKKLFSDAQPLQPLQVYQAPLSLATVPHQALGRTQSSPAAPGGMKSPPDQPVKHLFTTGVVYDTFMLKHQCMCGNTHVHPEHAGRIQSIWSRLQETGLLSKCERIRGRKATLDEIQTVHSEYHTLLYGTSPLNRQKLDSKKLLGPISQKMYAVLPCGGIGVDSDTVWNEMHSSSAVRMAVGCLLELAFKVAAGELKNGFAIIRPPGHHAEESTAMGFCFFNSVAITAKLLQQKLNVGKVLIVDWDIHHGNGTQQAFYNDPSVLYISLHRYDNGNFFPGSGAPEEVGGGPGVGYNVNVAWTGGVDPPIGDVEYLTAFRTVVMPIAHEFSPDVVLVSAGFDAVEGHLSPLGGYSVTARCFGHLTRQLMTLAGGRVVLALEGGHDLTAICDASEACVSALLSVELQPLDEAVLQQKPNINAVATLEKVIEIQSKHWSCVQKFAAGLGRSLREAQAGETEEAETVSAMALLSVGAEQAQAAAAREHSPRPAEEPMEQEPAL

Histone deacetylase 7 = target: T1, Histone deacetylase 7 (Homo sapiens, UniProt Q8WUI4); assay: Inhibition of HDAC7 (unknown origin) preincubated for 10 mins followed by substrate addition by fluorescence based assay
T1 sequence (Q8WUI4 whole entry): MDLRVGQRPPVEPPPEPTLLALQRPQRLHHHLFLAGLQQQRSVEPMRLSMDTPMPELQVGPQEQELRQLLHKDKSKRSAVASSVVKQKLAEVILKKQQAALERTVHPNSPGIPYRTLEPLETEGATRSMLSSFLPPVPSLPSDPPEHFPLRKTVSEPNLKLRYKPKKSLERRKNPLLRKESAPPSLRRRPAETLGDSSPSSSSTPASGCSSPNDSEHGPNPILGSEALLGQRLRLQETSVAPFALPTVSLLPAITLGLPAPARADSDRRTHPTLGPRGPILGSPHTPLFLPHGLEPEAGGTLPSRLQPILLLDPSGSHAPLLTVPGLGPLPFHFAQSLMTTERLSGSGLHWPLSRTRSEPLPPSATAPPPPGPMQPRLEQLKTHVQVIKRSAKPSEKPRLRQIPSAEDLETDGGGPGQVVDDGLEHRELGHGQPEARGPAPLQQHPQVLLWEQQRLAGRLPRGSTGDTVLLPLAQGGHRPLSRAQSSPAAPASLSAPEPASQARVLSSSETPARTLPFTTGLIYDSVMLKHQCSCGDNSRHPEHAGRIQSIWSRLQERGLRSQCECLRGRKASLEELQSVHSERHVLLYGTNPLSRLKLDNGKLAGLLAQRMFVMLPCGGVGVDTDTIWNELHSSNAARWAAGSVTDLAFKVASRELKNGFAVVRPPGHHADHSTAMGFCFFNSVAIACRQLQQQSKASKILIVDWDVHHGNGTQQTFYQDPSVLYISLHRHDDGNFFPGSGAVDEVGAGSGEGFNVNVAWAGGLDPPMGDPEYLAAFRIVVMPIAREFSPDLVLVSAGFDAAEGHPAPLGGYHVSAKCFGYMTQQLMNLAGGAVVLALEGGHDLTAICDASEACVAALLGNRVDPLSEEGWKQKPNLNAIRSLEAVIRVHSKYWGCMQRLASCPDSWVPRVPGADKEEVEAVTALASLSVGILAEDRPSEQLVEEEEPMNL

Histone deacetylase 11 = target: T2, Histone deacetylase 11 (Homo sapiens, UniProt Q96DB2); assay: Inhibition of HDAC11 (unknown origin) preincubated for 10 mins followed by substrate addition by fluorescence based assay
T2 sequence (Q96DB2 whole entry): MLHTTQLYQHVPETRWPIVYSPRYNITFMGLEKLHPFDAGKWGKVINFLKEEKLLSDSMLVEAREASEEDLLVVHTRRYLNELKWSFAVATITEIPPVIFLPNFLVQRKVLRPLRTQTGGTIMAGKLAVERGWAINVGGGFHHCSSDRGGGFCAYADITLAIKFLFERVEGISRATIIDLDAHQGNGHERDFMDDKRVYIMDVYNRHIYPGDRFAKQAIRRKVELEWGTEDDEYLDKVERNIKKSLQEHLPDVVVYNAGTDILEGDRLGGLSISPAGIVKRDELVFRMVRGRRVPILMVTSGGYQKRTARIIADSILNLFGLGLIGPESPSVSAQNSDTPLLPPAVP

RPMI-8226 [1] = assay: Upregulation of Ac-alpha-tubulin expression in human RPMI-8226 cells at 0.1 uM incubated for 24 hrs by Western blot analysis; type: functional, cell-based
RPMI-8226 [2] = assay: Upregulation of Ac-H3 expression in human RPMI-8226 cells at 0.1 to 0.5 uM incubated for 24 hrs by Western blot analysis; type: functional, cell-based; settings: dose 0.1-0.5 µM
RPMI-8226 [3] = assay: Induction of cell cycle arrest at G1 phase in human RPMI-8226 cells at 0.5 uM incubated for 24 hrs by PI staining based flow cytometry (reference value: 19.2 %); type: functional
RPMI-8226 [4] = assay: Induction of cell cycle arrest at G1 phase in human RPMI-8226 cells at 2.5 uM incubated for 24 hrs by PI staining based flow cytometry (reference value: 19.2 %); type: functional
RPMI-8226 [5] = assay: Induction of cell cycle arrest at S phase in human RPMI-8226 cells at 2.5 uM incubated for 24 hrs by PI staining based flow cytometry (reference value: 58.5 %); type: functional
RPMI-8226 [6] = assay: Induction of apoptosis in human RPMI-8226 cells assessed as viable cells at 0.1 uM incubated for 24 hrs by Annexin V-FITC/PI staining based flow cytometry (reference value: 90.98 %); type: functional; settings: read-out: Activity
RPMI-8226 [7] = assay: Induction of apoptosis in human RPMI-8226 cells assessed as viable cells at 0.5 uM incubated for 24 hrs by Annexin V-FITC/PI staining based flow cytometry (reference value: 90.98 %); type: functional; settings: read-out: Activity
RPMI-8226 [8] = assay: Induction of apoptosis in human RPMI-8226 cells assessed as early apoptotic cells at 0.5 uM incubated for 24 hrs by Annexin V-FITC/PI staining based flow cytometry (reference value: 5.34 %); type: functional
RPMI-8226 [9] = assay: Induction of apoptosis in human RPMI-8226 cells assessed as increase in p53 expression at 0.1 to 2.5 uM incubated for 24 hrs by Western blot analysis; type: functional, cell-based; settings: dose 0.1-2.5 µM
RPMI-8226 [10] = assay: Induction of apoptosis in human RPMI-8226 cells assessed as increase in caspase-3 expression at 0.1 to 2.5 uM incubated for 24 hrs by Western blot analysis; type: functional, cell-based; settings: dose 0.1-2.5 µM
[11] = Half life in mouse at 1 mg/kg, iv; type: ADME, organism-based; settings: in vivo
[12] = Tmax in mouse at 10 mg/kg, po; type: ADME, organism-based; settings: in vivo
[13] = Half life in mouse at 10 mg/kg, po; type: ADME, organism-based; settings: in vivo
[14] = Oral bioavailability in mouse at 10 mg/kg; type: ADME, organism-based; settings: in vivo
[15] = Toxicity in Balb/c nude mouse xenografted with human RPMI-8226 cells assessed as adverse effect on liver at 10 to 40 mg/kg, po qd for 21 days administered consecutively by H and E staining based analysis; type: organism-based; settings: in vivo, 504 h, dose 10-40 mg/kg, time 21 day
[16] = Toxicity in Balb/c nude mouse xenografted with human RPMI-8226 cells assessed as adverse effect on serum uric acid level at 10 to 40 mg/kg, po qd for 21 days administered consecutively; type: organism-based; settings: in vivo, 504 h, dose 10-40 mg/kg, time 21 day
MDA-MB-468 = assay: cells; settings: Homo sapiens, MDA-MB-468, 24 h

IC50 (Histone deacetylase 1): 1130 nM
IC50 (Histone deacetylase 4): 1930 nM
IC50 (Histone deacetylase 5): 2120 nM
IC50 (Histone deacetylase 7): 1230 nM
IC50 (Histone deacetylase 11): 983 nM
half-life [11]: 41.9 min
Tmax [12]: 20 min
half-life [13]: 20 min
bioavailability [14]: 4.6%
IC50 (MDA-MB-468): > 50000 nM
SMILES: Cn1c([C@@H](Cc2ccccc2)NCc2ccccc2)nc2cc(C(=O)NO)ccc21
IC50 (HCT-116): 15200 nM
IC50 (HCCLM3): > 50000 nM
Activity (RPMI-8226 [1]): inactive
Activity (RPMI-8226 [2]): inactive
Activity (RPMI-8226 [3]): 24.5%
Activity (RPMI-8226 [4]): 26.8%
Activity (RPMI-8226 [5]): 39.8%
viability at 0.1 µM (RPMI-8226 [6]): 82.5%
viability at 0.5 µM (RPMI-8226 [7]): 81.2%
Activity (RPMI-8226 [8]): 14.04%
Activity (RPMI-8226 [9]): Active
Activity (RPMI-8226 [10]): Active
Activity [15]: Non-Toxic
Activity [16]: Non-Toxic
